According to patent publication US5958770A, “Glycoalkaloids” (priority 1990, dated 1999):
Entries after “also recorded” stand apart in the source; their conditions may differ. Where two headings read alike, the source gives them in different places.

Key:
in vitro [1] = conditions: human, pwm stimulated lymphocytes
Description: (§5) This was cultured for 48 hours and pulsed with tritiated thymidine for a further 24 hours. In the inhibition studies, the cell concentration was 8×10^5 /ml.
(§6) All cells were harvested by vacuum filtration by washing in 250 μl of each of phosphate buffered saline, 5% trichloroacetic acid, 1.0M NaCl and 95% ethanol and subjected to β-scintillatian counting. Similarly, peripheral human blood lymphocytes were isolated and cultured 2×10^5 lymphocytes in CO2 1640TCM 10% HIFCS. Lymphocytes were stimulated with 20 μg/ml PHA, Con A or PWM, and cultured for 48 hrs followed by a 24 hr pulse. […] Cell concentrations were 8×10^4 /well total volume 250 μl. The dpm of the experimental replicates were expressed as a percentage of the mean value of the controls, and the mean value of the experimental replicates calculated.

fibroblasts = assay: Solamargine cytotoxicity in presence and absence of carbohydrates, fibroblasts; type: cell-based, human; conditions: Homo sapiens, Fibroblast, Fb, solamargine 3.1 μM/L, read-out: Percentage Survival
Description: (§1) A mixture of solasodine glycosides (BEC), of which the active compound is solamargine and from which the aglycone solasodine is derived was prepared for use in cytotoxicity assays as determined by the uptake of tritiated thymidine. Inhibition studies were carried out with lactose, lactosyl-albumin, galactose or rhamnose (Sigma Chemical Co., USA). All experimental replicates were related to their own controls. Total volume of replicates was 250 μl (carbohydrates added in 50 μl tissue culture media+10% fetal calf serum), and the cell concentrations were 8×10^4 /ml.

in vitro [2] = conditions: human, con a stimulated lymphocytes
Description: as §5, §6

lymphoblastoid cells = assay: Solamargine cytotoxicity in presence and absence of carbohydrates, lymphoblastoid cells; type: cell-based; conditions: Homo sapiens, Lymphoblastoid cell, LCL, solamargine 3.1 μM/L, read-out: Percentage Survival
Description: as §1

[3] = system: PWM stimulated lymphocytes; assay: Inhibition of tritiated thymidine uptake, PWM stimulated lymphocytes; conditions: PWM stimulated lymphocytes
Description: as §5, §6

human fibroblasts = assay: cells; conditions: for TR50 (thymidine ratio relative to ovarian cancer cells): FB / OvCa
Description: (§2) The inhibition of cell replication by steroid alkaloids is determined by the inhibition of the incorporation of ^3 H thymidine into DNA. Using this technique, it should be possible to monitor any preferential inhibition of uptake of ^3 H thymidine by cancer cells.
(§3) Cells were maintained as monolayers in RPM1-1640 tissue culture media (Grant Island Biological Co) buffered with N-2-hydroxy-ethylpiperazine-N-2-ethanesulphonic acid pH 7.5 and supplemented with 10% heat inactivated fetal calf serum (FCS): (i) a human ovarian cancer cell line (C180-135), (ii) HeLa cells, (iii) human fibroblasts, and (iv) as a cell suspension of lymphoblastoid cells (EBV transformed lymphocytes). Monolayers were trypsinized to form a cell suspension. […] Cell concentration was adjusted to 2×10^5 cells/ml, and 2×10^4 cells were added in replicates of 10 to the wells (1×10^5 /ml well) of HA microtitre plates (Millipore Corp., USA). The cells were preincubated at 37.5° C. for 7 hours prior to the addition of 50 μl of the cytotoxic drug followed by the addition of 50 μl 5 uCi/ml of ^3 H thymidine, in the same tissue culture media 21 hours later. Incubation was continued for a total of 24 hours, which includes the pre-incubation time.
(§4) Appropriate DMSO cytotoxicity studies were also conducted. Solasodine glycosides were supplied as a mixture (BEC), and as separate components, solamargine, solasonine, a mixture of di- and mono-glycosides and the aglycone solasodine. All cytotoxic drugs were further diluted with HIFCS/TCM before testing. 5×10^4 ovarian cancer cells (200 μl/chamber of a chamber of microscope slide (Lab Tek Miles Scientific) were used. Controls received 50 μl HIFCS/TCM and experimental chambers 50 μl of solasodine glycosides (BEC) 1.5-3.8 μM/L after 7 hrs preincubation, and incubated for a further 3 hrs. Similarly, the cells were treated with the aglycone solasodine 19.4-96.8 μM/L. The cells were fixed and examined by the Papanicolaou method.

HeLa cells = assay: cells
Description: as §2, §3, §4

[4] = system: lymphoblastoid cells (EBV transformed lymphocytes); assay: cells; conditions: for TR50 (thymidine ratio relative to ovarian cancer cells): LCL / OvCa
Description: as §2, §3, §4

in vitro [5] = conditions: human, pha stimulated lymphocytes
Description: as §5, §6

in vitro [6] = conditions: human, unstimulated lymphocytes
Description: as §5, §6

ovarian cancer cells [7] = assay: Inhibition of tritiated thymidine uptake, ovarian cancer cells
Description: as §2, §3, §4

unstimulated lymphocytes = assay: Inhibition of tritiated thymidine uptake, unstimulated lymphocytes; conditions: unstimulated lymphocytes
Description: as §5, §6

ovarian cancer cells [8] = assay: Solamargine cytotoxicity in presence and absence of carbohydrates, ovarian cancer cells; type: cell-based, human; conditions: Homo sapiens, OvCa, solamargine 1.54 μM/L, read-out: Percentage Survival
Description: as §1

[9] = system: Con A stimulated lymphocytes; assay: Inhibition of tritiated thymidine uptake, Con A stimulated lymphocytes; conditions: Con A stimulated lymphocytes
Description: as §5, §6

[10] = system: ovarian cancer cells, HeLa cells, lymphoblastoid cells, fibroblasts; assay: Cytotoxicity / inhibition of tritiated thymidine uptake, cell types taken together
Description: as §2, §3, §4

ovarian cancer cells [11] = assay: Morphological examination of ovarian cancer cells (Papanicolaou); type: cell-based, human; conditions: 17 hours; FIG. 4B
Description: Appropriate DMSO cytotoxicity studies were also conducted.
A human ovarian cancer cell line (C180-135) was grown as mono layers and trypsinized to form a cell suspension. The cells were adjusted to a concentration of 1×10^5 /ml (viability ≥95%) and 200 μl placed in each of the eight chambers of microscope chamber slides (Lab Tek, Miles Scientific). After 21 hours preincubation at 37.5° C., 50 μl of supplemented tissue culture media were added to the control chambers. To the other chambers were added 50 μl of solasodine glycosides (BEC) to give final concentrations of 3, 4.8, 6.7, 7.7, 9.6, 11.1 and 15.3 μM/L. Similarly, to a separate chamber slide was added the aglycone solasodine (19.4-96.8 μM/L). The slides were incubated at 37.5° C. for a further 3 hours, and the cells fixed in 95% V/V alcohol and stained by the Papanicolaou method. Two other chamber slides were prepared in a similar manner, but the solasodine glycosides and the aglycone were added at a final concentration of 0.77, 1.5, 2.3, 3.1 and 3.8 μM/L after 7 hours preincubation, and they incubated for a further 17 hours.

[12] = system: PHA stimulated lymphocytes; assay: Inhibition of tritiated thymidine uptake, PHA stimulated lymphocytes; conditions: PHA stimulated lymphocytes
Description: as §5, §6

[13] = 1.1 μM/L galactose, *** p < 0.001
[14] = 1.1 μM/L lactose, *** p < 0.001

Compound C[C@@H]1CC[C@@]2(NC1)O[C@H]1C[C@H]3[C@@H]4CC=C5C[C@@H](O[C@@H]6O[C@H](CO)[C@@H](O[C@@H]7O[C@@H](C)[C@H](O)[C@@H](O)[C@H]7O)[C@H](O)[C@H]6O[C@@H]6O[C@@H](C)[C@H](O)[C@@H](O)[C@H]6O)CC[C@]5(C)[C@H]4CC[C@]3(C)[C@H]1[C@@H]2C [Solamargine, solamargine] has a viability at 11.5 µM (in vitro [1]) of 93 ± 9.4%, a viability at 3.1 µM (fibroblasts; [13]) of 101% and a viability at 3.1 µM (fibroblasts; [14]) of 100%. It also gave a viability at 3.1 µM (fibroblasts; 1.1 μM/L rhamnose, *** p < 0.001) of 87%, a viability at 3.1 µM (fibroblasts; no carbohydrate) of 58 ± 9.6% and a viability at 11.5 µM (in vitro [2]) of 79 ± 4%. The viability at 3.1 µM (lymphoblastoid cells; [13]) was 42%, the viability at 3.1 µM (lymphoblastoid cells; [14]) was 47% and the viability at 3.1 µM (lymphoblastoid cells; 1.1 μM/L rhamnose) was 36 ± 4.5%. For the same compound, the viability at 3.1 µM (lymphoblastoid cells; no carbohydrate) was 34 ± 3%, the “cytotoxicity (words)” value [3] was “absence of cytotoxicity” and the “TR50 (thymidine ratio relative to ovarian cancer cells)” value (human fibroblasts; listed as Solam) was 2.3. The “TR50 (thymidine ratio relative to ovarian cancer cells)” value (human fibroblasts; listed as solamargine) was “greater than 2”, the IC50 (human fibroblasts; Homo sapiens, Fibroblast, read-out: LD50 (dose to inhibit 50% tritiated thymidine uptake)) was 3.65 µM and the viability at 11.5 µM (human fibroblasts; Homo sapiens, Fibroblast, read-out: Percentage Cell Survival) was 23 ± 1.7%. The “TR50 (thymidine ratio relative to ovarian cancer cells)” value (HeLa cells; HeLa / OvCa) was 1.6, the IC50 (HeLa cells; Homo sapiens, HeLa, read-out: LD50 (dose to inhibit 50% tritiated thymidine uptake)) was 2.5 µM and the viability at 11.5 µM (HeLa cells; Homo sapiens, HeLa, read-out: Percentage Cell Survival) was 2.6 ± 0.5%. For the same compound, the viability at 11.5 µM ([4]; Homo sapiens, Lymphoblastoid cell, read-out: Percentage Cell Survival) was 35 ± 4.2%, the “TR50 (thymidine ratio relative to ovarian cancer cells)” value ([4]; listed as Solam) was 2.5 and the “TR50 (thymidine ratio relative to ovarian cancer cells)” value ([4]; listed as solamargine) was “greater than 2”. The IC50 ([4]; human gammaherpesvirus 4, LCL, read-out: LD50 (dose to inhibit 50% tritiated thymidine uptake)) was 3.95 µM, the viability at 11.5 µM (in vitro [5]) was 93 ± 4.4% and the viability at 11.5 µM (in vitro [6]) was 76 ± 9.6%. The IC50 (ovarian cancer cells [7]; Homo sapiens, read-out: LD50 (dose to inhibit 50% tritiated thymidine uptake)) was 1.55 µM, the viability at 11.5 µM (ovarian cancer cells [7]; Homo sapiens, read-out: Percentage Cell Survival) was 7 ± 0.8% and the “LD50 of solamargine less than that of vinblastine, chlorambucil or cis-platinum” value (ovarian cancer cells [7]; ovarian cancer cells, fold lower) was 6-40 times. For the same compound, the “cytotoxicity (words)” value (unstimulated lymphocytes) was “limited effect; also recorded: limited cytotoxicity”, the viability at 1.54 µM (ovarian cancer cells [8]; 1.1 μM/L galactose, ** p = 0.001) was 79% and the viability at 1.54 µM (ovarian cancer cells [8]; 1.1 μM/L lactose, * p < 0.02 > 0.01) was 75%. For the same compound, the viability at 1.54 µM (ovarian cancer cells [8]; 1.1 μM/L rhamnose) was 67 ± 7.5%, the viability at 1.54 µM (ovarian cancer cells [8]; no carbohydrate) was 62 ± 7% and the “cytotoxicity (words)” value [9] was “limited effect; also recorded: limited cytotoxicity”. For the same compound, the “preferential cytotoxicity for cancer cells” value ([10]; cancer cells relative to other cell types) was “preferentially inhibits the uptake of tritiated thymidine by cancer cells”, the “LD50 for ovarian cancer cell line and HeLa cells less than that for lymphoblastoid cells and fibroblasts” value ([10]; fold lower) was 1.5-3.3 times and the “morphological effect on ovarian cancer cells” value (ovarian cancer cells [11]) was “absence of cancer cells upon cytological examination”. For the same compound, the “cytotoxicity (words)” value [12] was “absence of cytotoxicity”.
